The values that follow come from article PMC12469269, “Investigating SMR Peptide Interactions with Breast Cancer-Associated Proteins” (International Journal of Molecular Sciences, 2025).

“Also recorded” adds a separate entry of the source.

Test [1] has as its system exNef-GFP secretion in MDA-MB-231, MCF-7, BT474 BC cells and Jurkat T cells. Nature of the test: Nef-driven exNef-GFP secretion (Figure 3), three BC cell lines and Jurkat T cells. It is filed as cell-based, human. Here is the method:
Figure 3 Effects of Mortalin-derived peptides on viral Nef-driven exNef secretion. (A) MDA-MB-231, (B) MCF-7, (C) BT474 BC cells, and (D) Jurkat T cells were co-transfected with 1 µg of wild-type Nef-GFP clone and 200 ng of various Mortalin-scanning peptides. The cells were then placed in a 24-well plate and incubated at 37 °C for 24 h before being assayed for extracellular vesicle secretion. Cells were also co-transfected with SMRwt or SMRmut peptides as positive and negative controls, respectively. The amount of GFP fluorescence measured was equivalent to the amount of exNef-GFP in the extracellular media. […] The bar graphs display relative levels of exosome release. In here, asterisks (* p < 0.05, ** p < 0.005, *** p < 0.0005, and **** p < 0.00005) are used to indicate levels of statistical significance. The more asterisks, the stronger the statistical significance. Data represents the mean ± SD from three independent experiments.
Co-transfections of cells with peptides were carried out using Lipofectamine Reagent (Fisher Scientific), following the manufacturer’s protocol. One day prior to transfection, cells were trypsinized and plated at a density of 6.25 × 10^5 cells per well in 2 mL of complete growth medium. […] The cell transfection efficiency was calculated by counting the green, fluorescent cells using a fluorescence microscope.

Test [2] has as its target T1, Recombinant Human Vimentin Protein (Homo sapiens, UniProt P08670).
T1 construct: purchased Novus Biologicals, LLC/R&D Systems 2105-VI-100
Nature of the test: biochemical. The format is binding. To be noted: SPR, 25 °C, HBS-P pH 7.4. From the text: (§1) We conducted SPR experiments to characterize and quantify the direct binding interactions between Nef and SMR peptides (the analytes) and the target proteins, Vimentin and Mortalin (the immobilized ligands). We did so by injecting the analytes at various concentrations over the chip surface with the immobilized ligands.
(§2) Recombinant Human Vimentin Protein, CF (catalog # 2105-VI-100), Recombinant Human GRP75/HSPA9B/Mortalin His Protein (catalog # NBC1-18380), and Recombinant Human HSPA8/HSC71/Hsc70 His Protein (Catalog # NBPI-30278) were purchased from Novus Biologicals, LLC/R&D Systems, Centennial, CO, USA. These proteins were used for SPR.
(§3) SPR experiments were conducted using a Biacore T200 instrument (Cytiva, Marlborough, MA, USA). CM5 sensor chips (Cytiva) were used to immobilize proteins and run subsequent binding assays at 25 °C. To investigate the direct binding of Nef and SMR peptides to Vimentin and Mortalin and SMR competition studies, both proteins were immobilized as ligands on the active flow cells (FCs) using standard amine coupling chemistry. One reference FC was prepared using the same surface chemistry, and no proteins were immobilized onto this reference FC. Vimentin was immobilized to a level of ~2500 RU to 7200 RU in the presence of 4 mM of HCl and Mortalin to a level of ~11,900 RU to 13,200 RU in the presence of 10 mM of sodium acetate buffer at pH 4.5. Analytes were then injected (Nef, SMR peptides, Mortalin peptides, and mixtures of […]). One 20 s pulse of 1:500 H3PO4 (H3PO4:ddH2O) was injected for surface regeneration. To investigate the direct binding of Mortalin peptides to Nef, Nef was immobilized as a ligand to ~450 RU using thiol coupling chemistry. A reference FC was created using a method similar to the one above. Mortalin peptides were then injected as analytes. One 20 s pulse of 1 M NaCl was injected for surface regeneration. HBS-P (10 mM Hepes, pH 7.4; 150 mM NaCl; 0.05% surfactant P20) was used as the immobilization running buffer during the immobilization of all ligands. HBS-P was also used to dilute analytes and as a running buffer during all analyte–ligand binding assays. SPR data used for analysis was both blank (signals due to HBS-P only) and reference-subtracted (signals corresponding to reference FCs). Sensorgrams recorded for kinetics analyses were fitted to a 1:1 binding model using the Biacore T200 evaluation software version 3.2.1. GraphPad Prism version 10.4.0 was used to plot all graphs.

For test [3], the target named is T2, Recombinant Human GRP75/HSPA9B/Mortalin His Protein (Homo sapiens, UniProt P38646).
T2 construct: His; purchased Novus Biologicals, LLC/R&D Systems NBC1-18380
Nature of the test: biochemical. The format is binding. Conditions: SPR, 25 °C, HBS-P pH 7.4.
Source text: as §1, §2, §3

T2 sequence (P38646 47-679): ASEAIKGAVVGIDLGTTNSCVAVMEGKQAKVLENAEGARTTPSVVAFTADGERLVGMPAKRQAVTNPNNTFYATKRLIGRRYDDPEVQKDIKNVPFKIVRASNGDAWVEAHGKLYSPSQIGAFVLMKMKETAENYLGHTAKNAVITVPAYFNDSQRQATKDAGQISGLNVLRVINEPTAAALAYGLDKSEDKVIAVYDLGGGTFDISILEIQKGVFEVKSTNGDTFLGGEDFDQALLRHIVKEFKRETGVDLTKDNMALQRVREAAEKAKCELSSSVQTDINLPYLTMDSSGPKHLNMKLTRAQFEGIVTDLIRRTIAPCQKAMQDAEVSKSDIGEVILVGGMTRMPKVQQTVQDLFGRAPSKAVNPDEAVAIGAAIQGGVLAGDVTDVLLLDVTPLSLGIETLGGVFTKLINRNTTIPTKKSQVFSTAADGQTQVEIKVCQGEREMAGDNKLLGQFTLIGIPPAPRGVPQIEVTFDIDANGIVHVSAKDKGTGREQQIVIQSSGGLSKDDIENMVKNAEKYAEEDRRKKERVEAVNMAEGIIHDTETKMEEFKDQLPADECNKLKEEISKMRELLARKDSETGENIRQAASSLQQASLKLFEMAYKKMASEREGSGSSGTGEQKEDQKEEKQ
T1 sequence (P08670 whole entry): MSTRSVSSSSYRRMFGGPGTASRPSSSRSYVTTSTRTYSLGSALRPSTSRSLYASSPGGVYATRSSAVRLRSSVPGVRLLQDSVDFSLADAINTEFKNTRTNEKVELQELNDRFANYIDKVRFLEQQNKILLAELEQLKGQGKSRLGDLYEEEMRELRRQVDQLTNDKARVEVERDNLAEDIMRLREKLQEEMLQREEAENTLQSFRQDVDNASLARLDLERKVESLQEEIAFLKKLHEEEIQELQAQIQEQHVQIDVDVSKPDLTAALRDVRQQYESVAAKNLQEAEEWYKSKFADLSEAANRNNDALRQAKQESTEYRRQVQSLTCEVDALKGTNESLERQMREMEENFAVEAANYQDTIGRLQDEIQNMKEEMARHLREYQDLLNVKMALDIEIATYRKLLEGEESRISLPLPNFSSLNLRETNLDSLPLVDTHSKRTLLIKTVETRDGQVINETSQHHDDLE

For “DQLPADECNKLKEEISKMRE [#61, Mortalin scanning peptide 61]”, the “effect on Nef function (exNef-GFP secretion), in words” value in test [1] (1 µg Nef-GFP + 200 ng peptide, co-transfected, 37 °C, 24 h, GFP fluorescence, three independent experiments) was “significant reduction in exNef-GFP secretion; also recorded: inhibit Nef function”. The “interaction with NefSMR domain / Nef / SMRwt peptide, in words” value in test [1] (inferred from exNef secretion (Figures 2 and 3)) is “bind HIV-1 Nef and the SMRwt peptide; also recorded: can interact with the NefSMR domain; also recorded: bound the SMR domain and effectively inhibited Nef activity”.

Turning to “^66Ala-Gly-Phe-Pro-Val^70 [SMRmut, 5-mer negative control, Val66 changed to Ala]”, the “binding response to Vimentin, in words” value in test [2] was “did not produce a meaningful positive binding response to Vimentin and Mortalin”. Besides, the “binding to Mortalin, in words” value in test [3] was “did not produce a meaningful positive binding response to Vimentin and Mortalin; also recorded: does not bind to the Mortalin protein”.
